Assay results taken from ChEMBL document CHEMBL1137831, “Synthesis and antibacterial activity of some aryloxy/thioaryloxy oxazolidinone derivatives” (2004).
Values after ≈ are worked out from the molar mass of the structure shown.

How the values were obtained:
[1] = test system: Staphylococcus epidermidis; experiment: Minimal inhibitory concentration against methicillin resistant Staphylococcus epidermidis ATCC 23760; type: functional
[2] = test system: Staphylococcus aureus; experiment: Minimal inhibitory concentration against Staphylococcus aureus ATCC 25923; type: functional
[3] = test system: Enterococcus faecium; experiment: Minimal inhibitory concentration against Enterococcus faecium 6A-VRE; type: functional
[4] = test system: Bacillus cereus; experiment: Minimal inhibitory concentration against Bacillus cereus; type: functional
[5] = test system: Staphylococcus aureus; experiment: Minimal inhibitory concentration against methicillin resistant Staphylococcus aureus ST450; type: functional
[6] = test system: Enterococcus faecalis; experiment: Minimal inhibitory concentration against Enterococcus faecalis (VRE) ATCC 346-VRE; type: functional
[7] = test system: Serratia marcescens; experiment: Minimal inhibitory concentration against Serratia marcescens ATCC 12999; type: functional
[8] = test system: Enterococcus durans; experiment: Minimal inhibitory concentration against Enterococcus durans ATCC 581; type: functional
[9] = test system: Enterococcus faecalis; experiment: Minimal inhibitory concentration against Enterococcus faecalis ATCC 29212; type: functional
[10] = test system: Pseudomonas aeruginosa; experiment: Minimal inhibitory concentration against Pseudomonas aeruginosa ATCC 27853; type: functional
[11] = test system: Klebsiella pneumoniae; experiment: Minimal inhibitory concentration against Klebsiella pneumoniae ATCC 15380; type: functional
[12] = test system: Escherichia coli; experiment: Minimal inhibitory concentration against Escherichia coli ATCC 25922; type: functional
[13] = test system: Staphylococcus epidermidis; experiment: Minimal inhibitory concentration against Staphylococcus epidermidis ATCC 12228; type: functional
[14] = test system: Salmonella typhi; experiment: Minimal inhibitory concentration against Salmonella typhi (MDR) ICH 098; type: functional, Salmonella enterica subsp. enterica serovar Typhi; details: Salmonella enterica
[15] = test system: Salmonella enterica subsp. enterica serovar Abony; experiment: Minimal inhibitory concentration against Salmonella abony NCTC 6017; type: functional
[16] = test system: Staphylococcus aureus; experiment: Minimal inhibitory concentration against methicillin resistant Staphylococcus aureus ST450; value ranges from 4-8 ug/mL; type: functional
[17] = test system: Staphylococcus aureus; experiment: Minimal inhibitory concentration against methicillin resistant Staphylococcus aureus ST450; value ranges from 2-4 ug/mL; type: functional
[18] = test system: Staphylococcus aureus; experiment: Minimal inhibitory concentration against methicillin resistant Staphylococcus aureus ST450; value ranges from 1-2 ug/mL; type: functional
[19] = test system: Staphylococcus aureus; experiment: Minimal inhibitory concentration against Staphylococcus aureus ATCC 25923; value ranges from 4-8 ug/mL; type: functional

| Structure (SMILES) | MIC [1] [µg/mL] | MIC [2] [µg/mL] | MIC [3] [µg/mL] | MIC [4] [µg/mL] | MIC [5] [µg/mL] | MIC [6] [µg/mL] | MIC [7] [µg/mL] | MIC [8] [µg/mL] | MIC [9] [µg/mL] | MIC [10] [µg/mL] | MIC [11] [µg/mL] | MIC [12] [µg/mL] | MIC [13] [µg/mL] | MIC [14] [µg/mL] | MIC [15] [µg/mL] | MIC [16] [µg/mL] | MIC [17] [µg/mL] | MIC [18] [µg/mL] | MIC [19] [µg/mL] |
| --- | --- | --- | --- | --- | --- | --- | --- | --- | --- | --- | --- | --- | --- | --- | --- | --- | --- | --- | --- |
| CC(=O)Nc1ccc(Oc2ccc(N3C[C@H](C/N=C(/S)N(C)C)OC3=O)cc2F)cc1 | 16 (≈ 35.8 µM) | 16 (≈ 35.8 µM) | > 16 | > 16 | 16 (≈ 35.8 µM) | 16 (≈ 35.8 µM) | > 16 | 16 (≈ 35.8 µM) | 16 (≈ 35.8 µM) | > 16 | > 16 | > 16 | 16 (≈ 35.8 µM) | > 16 | > 16 |  |  |  |  |
| CC(=O)NC[C@H]1CN(c2ccc(Oc3cccc(NC(C)=O)c3)c(F)c2)C(=O)O1 | > 16 | > 16 | > 16 | > 16 | > 16 | > 16 | > 16 | > 16 | > 16 | > 16 | > 16 | > 16 | > 16 | > 16 | > 16 |  |  |  |  |
| CC(=O)Nc1ccc(Sc2ccc(N3C[C@H](C/N=C(/S)NN)OC3=O)cc2F)cc1 | 4 (≈ 8.9 µM) | 4 (≈ 8.9 µM) | 16 (≈ 35.6 µM) | > 16 |  | 8 (≈ 17.8 µM) | > 16 | 8 (≈ 17.8 µM) | 4 (≈ 8.9 µM) | > 16 | > 16 | > 16 | 4 (≈ 8.9 µM) | > 16 | > 16 | 8 (≈ 17.8 µM) |  |  |  |
| CC(=O)Nc1ccc(Sc2ccc(N3C[C@H](C/N=C(/S)NC4CC4)OC3=O)cc2F)cc1 | 8 (≈ 16.9 µM) | 16 (≈ 33.7 µM) | 8 (≈ 16.9 µM) | > 16 | 16 (≈ 33.7 µM) | > 16 | > 16 | 8 (≈ 16.9 µM) | 8 (≈ 16.9 µM) | > 16 | > 16 | > 16 | 8 (≈ 16.9 µM) | > 16 | > 16 |  |  |  |  |
| CC(=O)NC[C@H]1CN(c2ccc(Oc3ccccc3NC(C)=O)c(F)c2)C(=O)O1 | > 16 | > 16 | > 16 | > 16 | > 16 | > 16 | > 16 | > 16 | > 16 | > 16 | > 16 | > 16 | > 16 | > 16 | > 16 |  |  |  |  |
| CC(=O)NC[C@H]1CN(c2ccc(N3CCOCC3)c(F)c2)C(=O)O1 [LINEZOLID] | 2 (≈ 5.93 µM) |  | 2 (≈ 5.93 µM) | > 16 |  |  | > 16 | 2 (≈ 5.93 µM) |  | > 16 | > 16 | > 16 | 2 (≈ 5.93 µM) | > 16 | > 16 |  |  |  |  |
| CC(=O)Nc1ccc(Oc2ccc(N3C[C@H](C/N=C(\N)S)OC3=O)cc2F)cc1 | 4 (≈ 9.56 µM) | 2 (≈ 4.78 µM) | 4 (≈ 9.56 µM) | > 16 |  | 4 (≈ 9.56 µM) | > 16 | 2 (≈ 4.78 µM) | 4 (≈ 9.56 µM) | > 16 | > 16 | > 16 | 2 (≈ 4.78 µM) | > 16 | > 16 |  | 4 (≈ 9.56 µM) |  |  |
| CC(=O)NC[C@H]1CN(c2ccc(Oc3ccc(NC(C)=O)cc3)c(F)c2)C(=O)O1 | 4 (≈ 9.97 µM) | 2 (≈ 4.98 µM) | 4 (≈ 9.97 µM) | > 16 |  | 4 (≈ 9.97 µM) | > 16 | 4 (≈ 9.97 µM) | 4 (≈ 9.97 µM) | > 16 | > 16 | > 16 | 2 (≈ 4.98 µM) | > 16 | > 16 |  | 4 (≈ 9.97 µM) |  |  |
| CC(=O)Nc1ccc(Oc2ccc(N3C[C@H](C/N=C(/S)NC4CC4)OC3=O)cc2F)cc1 | 16 (≈ 34.9 µM) | > 16 | > 16 | > 16 | 16 (≈ 34.9 µM) | 16 (≈ 34.9 µM) | > 16 | 16 (≈ 34.9 µM) | 8 (≈ 17.4 µM) | > 16 | > 16 | > 16 | 16 (≈ 34.9 µM) | > 16 | > 16 |  |  |  |  |
| CO/C(S)=N\C[C@H]1CN(c2ccc(Oc3ccc(NC(C)=O)cc3)c(F)c2)C(=O)O1 | 16 (≈ 36.9 µM) | 8 (≈ 18.5 µM) | 16 (≈ 36.9 µM) | > 16 | 16 (≈ 36.9 µM) | 8 (≈ 18.5 µM) | > 16 | 8 (≈ 18.5 µM) | 8 (≈ 18.5 µM) | > 16 | > 16 | > 16 | 8 (≈ 18.5 µM) | > 16 | > 16 |  |  |  |  |
| CC(=O)Nc1ccc(Sc2ccc(N3C[C@H](C/N=C(\N)S)OC3=O)cc2F)cc1 | 2 (≈ 4.6 µM) | 1 (≈ 2.3 µM) | 2 (≈ 4.6 µM) | > 16 |  | 2 (≈ 4.6 µM) | > 16 | 2 (≈ 4.6 µM) | 2 (≈ 4.6 µM) | > 16 | > 16 | > 16 | 1 (≈ 2.3 µM) | > 16 | > 16 |  |  | 2 (≈ 4.6 µM) |  |
| CO/C(S)=N\C[C@H]1CN(c2ccc(Sc3ccc(NC(C)=O)cc3)c(F)c2)C(=O)O1 | 8 (≈ 17.8 µM) |  | 4 (≈ 8.9 µM) | > 16 |  | 8 (≈ 17.8 µM) | > 16 | 4 (≈ 8.9 µM) | 4 (≈ 8.9 µM) | > 16 | > 16 | > 16 | 4 (≈ 8.9 µM) | > 16 | > 16 | 8 (≈ 17.8 µM) |  |  | 8 (≈ 17.8 µM) |
| CC(=O)NC[C@H]1CN(c2ccc(Sc3ccc(NC(C)=O)cc3)c(F)c2)C(=O)O1 | 2 (≈ 4.79 µM) | 1 (≈ 2.4 µM) | 2 (≈ 4.79 µM) | > 16 |  | 2 (≈ 4.79 µM) | > 16 | 2 (≈ 4.79 µM) | 2 (≈ 4.79 µM) | > 16 | > 16 | > 16 | 1 (≈ 2.4 µM) | > 16 | > 16 |  |  | 2 (≈ 4.79 µM) |  |
| CC(=O)Nc1ccc(Sc2ccc(N3C[C@H](C/N=C(/S)N(C)C)OC3=O)cc2F)cc1 | 16 (≈ 34.6 µM) | 16 (≈ 34.6 µM) | > 16 | > 16 | > 16 | 16 (≈ 34.6 µM) | > 16 | 16 (≈ 34.6 µM) | 8 (≈ 17.3 µM) | > 16 | > 16 | > 16 | 16 (≈ 34.6 µM) | > 16 | > 16 |  |  |  |  |
